{
  "source": "patent US12115139B2",
  "about": "“Treatment methods and processes for an infected nail” (priority 2018, dated 2024)",
  "origin": "cited, not measured here",
  "test_system": "nail infections",
  "conditions": "for side effects compared with Lamisil: oral treatment",
  "note": "Where “and” joins values, the source holds several entries; their conditions need not be identical. Equal entries are not always repeated. Structures can show the parent of a compound that is named as a salt.",
  "data": [
    {"compound": "CC[C@@H]([C@H](C)O)n1ncn(-c2ccc(N3CCN(c4ccc(OC[C@@H]5CO[C@@](Cn6cncn6)(c6ccc(F)cc6F)C5)cc4)CC3)cc2)c1=O", "note": "[Posaconazole]", "values": [
      {"measurement": "side effects compared with Lamisil", "result": "fewer side effects"}
    ]},
    {"compound": "CCC(C)(C)c1ccc(CC(C)CN2C[C@@H](C)O[C@@H](C)C2)cc1", "note": "(stereo partly shown) [Amorolfine, amorolfine]", "values": [
      {"measurement": "effectiveness against severe nail infections", "setting": "topical, severe nail infections involving the nail bed", "result": "not effective"}
    ]},
    {"compound": "Cc1cc(C2CCCCC2)n(O)c(=O)c1", "note": "[Ciclopirox, ciclopirox]", "values": [
      {"measurement": "cure rate", "setting": "topical, 8% strength", "result": "about 8.5%"}
    ]},
    {"compound": "C=C1CCN([C@H](C)[C@](O)(Cn2cncn2)c2ccc(F)cc2F)CC1", "note": "[efinaconazole]", "values": [
      {"measurement": "cure rates", "setting": "topical, only mild infections not involving the nail bed", "result": "17.8% and 15.2%"}
    ]},
    {"compound": "OB1OCc2cc(F)ccc21", "note": "[Tavaborole, tavaborole]", "values": [
      {"measurement": "complete cure", "setting": "topical, share of the 600 patients in the study", "result": 6, "unit": "%"}
    ]},
    {"compound": "CN(C/C=C/C#CC(C)(C)C)Cc1cccc2ccccc12", "note": "[Lamisil, terbinafine hydrochloride]", "values": [
      {"measurement": "mycological cure rate", "setting": "oral treatment of nail infections", "result": 46, "unit": "%"}
    ]},
    {"compound": "C[C@@H](n1cnc2cc(Cl)ccc2c1=O)[C@](O)(Cn1cncn1)c1ccc(F)cc1F", "note": "[Albaconazole]", "values": [
      {"measurement": "side effects compared with Lamisil", "result": "fewer side effects"}
    ]}
  ]
}
